The target in experiment [1] is T1, Phosphatidylinositol 5-phosphate 4-kinase type-2 alpha (Homo sapiens, UniProt P48426).
T1 sequence (P48426 whole entry): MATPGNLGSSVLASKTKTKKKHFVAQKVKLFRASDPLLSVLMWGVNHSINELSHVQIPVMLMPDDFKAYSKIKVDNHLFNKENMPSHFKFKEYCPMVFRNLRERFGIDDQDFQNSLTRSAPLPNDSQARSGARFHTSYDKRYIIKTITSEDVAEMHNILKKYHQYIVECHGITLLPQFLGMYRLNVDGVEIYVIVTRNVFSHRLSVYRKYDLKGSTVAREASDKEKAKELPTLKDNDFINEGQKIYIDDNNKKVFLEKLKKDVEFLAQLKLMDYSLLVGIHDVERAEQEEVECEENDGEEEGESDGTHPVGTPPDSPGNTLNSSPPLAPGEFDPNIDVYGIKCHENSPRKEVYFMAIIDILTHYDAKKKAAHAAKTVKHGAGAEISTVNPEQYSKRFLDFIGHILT

The target of experiment [2] is T2, Interleukin-1 receptor-associated kinase 4 (Homo sapiens, UniProt Q9NWZ3).
T2 sequence (Q9NWZ3 whole entry): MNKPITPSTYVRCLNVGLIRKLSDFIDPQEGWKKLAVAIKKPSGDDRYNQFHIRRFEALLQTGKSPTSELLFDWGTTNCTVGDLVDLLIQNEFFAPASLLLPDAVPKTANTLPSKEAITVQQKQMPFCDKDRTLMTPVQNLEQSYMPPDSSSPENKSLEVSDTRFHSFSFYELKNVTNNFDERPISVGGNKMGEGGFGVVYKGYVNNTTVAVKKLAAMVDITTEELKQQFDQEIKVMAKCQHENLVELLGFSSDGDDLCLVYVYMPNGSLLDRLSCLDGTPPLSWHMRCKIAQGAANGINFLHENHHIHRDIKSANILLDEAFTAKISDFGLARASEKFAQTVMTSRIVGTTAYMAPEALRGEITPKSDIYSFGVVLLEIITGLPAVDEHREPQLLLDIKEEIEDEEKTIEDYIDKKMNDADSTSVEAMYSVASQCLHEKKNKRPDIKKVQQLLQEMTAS

The target in experiment [3] is T3, ADP/ATP translocase 3 (Homo sapiens, UniProt P12236).
T3 sequence (P12236 whole entry): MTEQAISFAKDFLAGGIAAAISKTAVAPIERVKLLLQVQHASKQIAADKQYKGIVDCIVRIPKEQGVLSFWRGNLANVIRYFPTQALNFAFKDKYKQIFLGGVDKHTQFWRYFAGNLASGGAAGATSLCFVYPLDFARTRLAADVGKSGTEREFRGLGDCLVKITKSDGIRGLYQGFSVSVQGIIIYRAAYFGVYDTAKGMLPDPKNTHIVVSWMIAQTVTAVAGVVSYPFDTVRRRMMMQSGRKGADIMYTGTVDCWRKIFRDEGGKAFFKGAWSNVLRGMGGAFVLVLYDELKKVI

The target in experiment [4] is Dual specificity testis-specific protein kinase 2 (Homo sapiens, UniProt Q96S53).
The target of experiment [5] is Dual specificity protein kinase CLK4 (Homo sapiens, UniProt Q9HAZ1).

Calls of active or inactive are those of the source.
Further: in the data inactive means no Kd found up to 30 µM.

Chain of Dual specificity testis-specific protein kinase 2 (Q96S53 whole entry): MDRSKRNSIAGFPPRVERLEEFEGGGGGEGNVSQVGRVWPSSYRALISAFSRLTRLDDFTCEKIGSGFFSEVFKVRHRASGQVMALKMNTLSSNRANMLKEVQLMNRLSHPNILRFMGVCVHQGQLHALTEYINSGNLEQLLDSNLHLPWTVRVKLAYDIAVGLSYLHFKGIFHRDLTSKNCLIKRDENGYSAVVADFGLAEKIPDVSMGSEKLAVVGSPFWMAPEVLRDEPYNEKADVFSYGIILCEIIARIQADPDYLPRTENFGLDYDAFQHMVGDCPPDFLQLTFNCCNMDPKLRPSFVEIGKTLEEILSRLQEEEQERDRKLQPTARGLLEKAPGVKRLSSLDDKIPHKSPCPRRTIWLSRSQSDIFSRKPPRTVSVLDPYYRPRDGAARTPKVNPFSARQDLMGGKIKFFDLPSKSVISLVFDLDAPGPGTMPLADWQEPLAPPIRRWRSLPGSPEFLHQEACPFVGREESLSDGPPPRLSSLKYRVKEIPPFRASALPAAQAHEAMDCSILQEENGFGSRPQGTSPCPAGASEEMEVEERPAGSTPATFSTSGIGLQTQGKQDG
Chain of Dual specificity protein kinase CLK4 (Q9HAZ1 whole entry): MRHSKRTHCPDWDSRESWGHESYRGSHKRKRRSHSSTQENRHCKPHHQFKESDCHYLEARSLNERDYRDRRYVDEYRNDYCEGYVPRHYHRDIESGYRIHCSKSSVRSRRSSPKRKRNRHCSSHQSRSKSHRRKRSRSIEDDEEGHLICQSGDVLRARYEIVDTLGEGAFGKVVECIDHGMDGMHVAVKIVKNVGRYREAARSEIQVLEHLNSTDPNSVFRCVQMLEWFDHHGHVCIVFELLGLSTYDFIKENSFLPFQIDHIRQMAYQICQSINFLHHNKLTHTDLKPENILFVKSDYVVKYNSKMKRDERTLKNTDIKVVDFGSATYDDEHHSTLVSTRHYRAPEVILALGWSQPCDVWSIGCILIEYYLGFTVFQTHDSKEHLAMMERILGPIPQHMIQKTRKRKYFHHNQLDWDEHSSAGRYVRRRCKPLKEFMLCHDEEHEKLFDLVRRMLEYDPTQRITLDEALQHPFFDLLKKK

In general, Kd refers to the constant that tells how readily two partners part at equilibrium. Take `C[C@@H](Nc1cc(F)cc(F)c1)c1cc(C(=O)N(C)C)cc2c(=O)cc(N3CCOCC3)oc12` [AZD-8186]: the Kd in experiment [1], in experiment [2] and in experiment [3] was > 30 µM (inactive) each time.
For `CC[C@H](Nc1ncnc2[nH]cnc12)c1nc2cccc(F)c2c(=O)n1-c1ccccc1` [IDELALISIB], the Kd in experiment [1], in experiment [4], in experiment [2], in experiment [3] and in experiment [5] was > 30 µM (inactive) throughout.
As for `C[C@@H](c1ccc2nccn2c1)n1nnc2ncc(-c3cnn(C)c3)nc21` [SAVOLITINIB], the Kd in experiment [1], in experiment [4], in experiment [2], in experiment [3] and in experiment [5] was > 30 µM (inactive) throughout.
Take `CN1N=C(N)c2cn([C@@H]3O[C@H](COP(=O)(O)O)[C@@H](O)[C@H]3O)c3ncnc1c23` [TRICIRIBINE PHOSPHATE]: the Kd in experiment [1], in experiment [2] and in experiment [3] was > 30 µM (inactive) in each case.
On to `O=C(c1ccc(F)c(F)c1Nc1ccc(I)cc1F)N1CC(O)([C@@H]2CCCCN2)C1` [COBIMETINIB], for which the Kd in experiment [1], in experiment [4], in experiment [2], in experiment [3] and in experiment [5] was > 30 µM (inactive) throughout.
On to `CCS(=O)(=O)N1CC(CC#N)(n2cc(-c3ncnc4[nH]ccc34)cn2)C1` [BARICITINIB], for which the Kd in experiment [2], in experiment [3] and in experiment [5] was > 30 µM (inactive) in each case.
As to `Cc1nc(N)sc1-c1ccnc(Nc2ccc(N3CCOCC3)cc2)n1` [CYC-116], the Kd in experiment [1], in experiment [4] and in experiment [3] was > 30 µM (inactive) each time.
For the compound `Cc1cc(Nc2cc(N3CCN(C)CC3)nc(/C=C/c3ccccc3)n2)n[nH]1` [ENMD-2076], the Kd in experiment [4] and in experiment [3] was > 30 µM (inactive) throughout.
With `O=C(Nc1cccc(Cl)c1)Nc1ncc(CCNc2ncnc3ccsc23)s1` [SNS-314], the Kd in experiment [1] and in experiment [3] was > 30 µM (inactive) each time.
Regarding `Cc1ccc(-n2nc(C(C)(C)C)cc2NC(=O)NCc2cc(F)ccc2Oc2ccc3c(cnn3CCO)c2)cc1` [PEXMETINIB], the Kd in experiment [1], in experiment [2], in experiment [3] and in experiment [5] was > 30 µM (inactive) in each case.
For `CNS(=O)(=O)Nc1nccc(Cc2c(C)c3ccc(Oc4ncccn4)cc3oc2=O)c1F` [AVUTOMETINIB], the Kd in experiment [1], in experiment [4], in experiment [2], in experiment [3] and in experiment [5] was > 30 µM (inactive) in each case.
On to `C1=C/COCc2cc(ccc2OCCN2CCCC2)Nc2nccc(n2)-c2cccc(c2)COC/1` [PACRITINIB], for which the Kd in experiment [2] and in experiment [3] was > 30 µM (inactive) in each case.
`COc1cc(N2CCC(N3CCN(C)CC3)CC2)ccc1Nc1ncnc(Nc2ccccc2S(=O)(=O)C(C)C)n1` [ASP-3026]: the Kd in experiment [2], in experiment [3] and in experiment [5] was > 30 µM (inactive) each time.
As for `Cn1ncc(Cl)c1-c1cc(C(=O)N[C@H](CN)Cc2cccc(F)c2)sc1Cl` [AFURESERTIB], the Kd in experiment [2] and in experiment [3] was > 30 µM (inactive) in each case.
On to `CCCS(=O)(=O)Nc1ccc(F)c(C(=O)c2c[nH]c3ncc(-c4ccc(Cl)cc4)cc23)c1F` [VEMURAFENIB], for which the Kd in experiment [1], in experiment [4], in experiment [2], in experiment [3] and in experiment [5] was > 30 µM (inactive) throughout.
On to `COC(=O)[C@@]1(O)C[C@H]2O[C@]1(C)n1c3ccccc3c3c4c(c5c6ccccc6n2c5c31)C(=O)NC4` [K-252A], for which the Kd was > 30 µM (inactive) in experiment [1]; > 30 µM (inactive) in experiment [4]; 0.009 µM (active) in experiment [2]; > 30 µM (inactive) in experiment [3]; 0.015 µM (active) in experiment [5].
On to `CN1CC[C@@H](c2c(O)cc(O)c3c(=O)cc(-c4ccccc4Cl)oc23)[C@@H]1CO`, for which the Kd in experiment [2], in experiment [3] and in experiment [5] was > 30 µM (inactive) in each case.
Turning to `N[C@@H]1CCCN(c2c(/C=C3\SC(=O)NC3=O)cccc2-c2ccccc2)C1`, the Kd in experiment [1], in experiment [2] and in experiment [3] was > 30 µM (inactive) throughout.
Consider `CCN1CCN(Cc2ccc(-c3cc4c(N[C@H](C)c5ccccc5)ncnc4[nH]3)cc2)CC1` [AEE-788], for which the Kd in experiment [2] and in experiment [3] was > 30 µM (inactive) each time.
Take `COc1cc2nccc(Oc3ccc(NC(=O)NC4CC4)c(Cl)c3)c2cc1C(N)=O` [LENVATINIB]: the Kd in experiment [1], in experiment [2], in experiment [3] and in experiment [5] was > 30 µM (inactive) throughout.
With `Cn1cc(-c2ccc(F)c(C(F)(F)F)c2)nc1C1CCN(c2ncnc3[nH]ncc23)CC1` [LY-2584702], the Kd in experiment [1], in experiment [4], in experiment [2] and in experiment [3] was > 30 µM (inactive) throughout.
Regarding `CNC(=O)c1ccc(C)c(-n2c(C)cc(OCc3ccc(F)cc3F)c(Br)c2=O)c1` [PH-797804], the Kd in experiment [2] and in experiment [3] was > 30 µM (inactive) in each case.
Turning to `CNC(=O)c1cc(Oc2ccc(NC(=O)Nc3ccc(Cl)c(C(F)(F)F)c3)c(F)c2)ccn1` [REGORAFENIB], the Kd in experiment [1], in experiment [4], in experiment [2], in experiment [3] and in experiment [5] was > 30 µM (inactive) throughout.
Regarding `COC(=O)N[C@@H](C)CNc1nccc(-c2cn(C(C)C)nc2-c2cc(Cl)cc(NS(C)(=O)=O)c2F)n1` [ENCORAFENIB], the Kd in experiment [1], in experiment [4], in experiment [2], in experiment [3] and in experiment [5] was > 30 µM (inactive) throughout.
`Cc1c(F)cc(C(=O)NC2CC2)cc1-c1ccc(C(=O)NCC(C)(C)C)cn1` [LOSMAPIMOD]: the Kd in experiment [1], in experiment [4], in experiment [2] and in experiment [3] was > 30 µM (inactive) each time.
Take `CC[C@@H]1C(=O)N(C)c2cnc(Nc3ccc(C(=O)N[C@H]4CC[C@H](N5CCN(CC6CC6)CC5)CC4)cc3OC)nc2N1C(C)C` [VOLASERTIB]: the Kd in experiment [1], in experiment [4], in experiment [2], in experiment [3] and in experiment [5] was > 30 µM (inactive) each time.
On to `O=c1sn(-c2cccc3ccccc23)c(=O)n1Cc1ccccc1` [TIDEGLUSIB], for which the Kd in experiment [2], in experiment [3] and in experiment [5] was > 30 µM (inactive) throughout.
In the case of `CO[C@H]1C[C@@H]2CC[C@@H](C)[C@@](O)(O2)C(=O)C(=O)N2CCCC[C@H]2C(=O)O[C@H]([C@H](C)C[C@@H]2CC[C@@H](OCCO)[C@H](OC)C2)CC(=O)[C@H](C)/C=C(\C)[C@@H](O)[C@@H](OC)C(=O)[C@H](C)C[C@H](C)/C=C/C=C/C=C/1C` [EVEROLIMUS], the Kd in experiment [1], in experiment [4], in experiment [2], in experiment [3] and in experiment [5] was > 30 µM (inactive) in each case.
In the case of `CN(C)C(=O)c1cc2cnc(Nc3ccc(N4CCNCC4)cn3)nc2n1C1CCCC1` [RIBOCICLIB], the Kd in experiment [1], in experiment [4], in experiment [2], in experiment [3] and in experiment [5] was > 30 µM (inactive) throughout.
Take `CC(C)Nc1cc(-c2c[nH]c(C(=O)N[C@H](CO)c3cccc(Cl)c3)c2)c(Cl)cn1` [ULIXERTINIB]: the Kd in experiment [1], in experiment [4], in experiment [2], in experiment [3] and in experiment [5] was > 30 µM (inactive) in each case.

The values above are taken from ChEMBL document CHEMBL3991601, “The target landscape of clinical kinase drugs” (Science, 2017).
